Assay results published in US6867211B2, “4-Pyridyl-and 2,4-pyrimidinyl-substituted pyrrole derivatives and their use in pharmacy” (Merckle GmbH, priority 2000, dated 2005).
Like-named read-outs stand apart in the source and are kept apart here.

Columns and labels:
TNFα [1] = experiment: In vitro test procedure using PBMCs, LPS-stimulated, TNFα by ELISA; format: cell-based; conditions: Homo sapiens, PBMC; for inhibition at 1 µM: at 1 μmol; for inhibition at 10 µM: at 10 μmol
Protocol: (§1) In vitro Test Procedure Using PBMCs
(§2) The mononuclear cells (PBMCs) are isolated from human potassium-EDTA whole blood diluted 1:3 by means of density gradient centrifugation (Histopaque®-1.077). After 2 washing steps with DPBS buffer, the mononuclear cells are resuspended in macrophage-SFM medium and adjusted to a cell count of 1×10^6 cells/ml.
(§3) The PBMCs suspension (at 390 μl) is preincubated with test substance for 15 min at 37° C. in a CO2 incubator (5% CO2; 95% moisture-saturated air). The samples are subsequently stimulated for 4 hours with 1 μg/ml LPS (E.coli 026:B6) at 37° C. in a CO2 incubator (5% CO2, 95% moisture-saturated air). The reaction is ended by placing the samples on ice, addition of DPBS buffer and centrifugation (15880×g; 12 min). The supernatant is used for the quantification of IL-1β and TNFα by means of ELISA.

5-lipoxygenase = target: T1, 5-lipoxygenase (Homo sapiens, UniProt P09917); experiment: In vitro test system for determining the inhibition of 5-lipoxygenase (LTB4 from human granulocytes, A 23187, ELISA); format: cell-based; conditions: human granulocytes; read-out: 5-LO IC50
T1 construct: Human granulocytes are used as a source of the 5-lipoxygenase; endogenous in cells; host or cells: human granulocytes isolated from heparinised blood on a Percoll gradient
T1 sequence (P09917 1-674): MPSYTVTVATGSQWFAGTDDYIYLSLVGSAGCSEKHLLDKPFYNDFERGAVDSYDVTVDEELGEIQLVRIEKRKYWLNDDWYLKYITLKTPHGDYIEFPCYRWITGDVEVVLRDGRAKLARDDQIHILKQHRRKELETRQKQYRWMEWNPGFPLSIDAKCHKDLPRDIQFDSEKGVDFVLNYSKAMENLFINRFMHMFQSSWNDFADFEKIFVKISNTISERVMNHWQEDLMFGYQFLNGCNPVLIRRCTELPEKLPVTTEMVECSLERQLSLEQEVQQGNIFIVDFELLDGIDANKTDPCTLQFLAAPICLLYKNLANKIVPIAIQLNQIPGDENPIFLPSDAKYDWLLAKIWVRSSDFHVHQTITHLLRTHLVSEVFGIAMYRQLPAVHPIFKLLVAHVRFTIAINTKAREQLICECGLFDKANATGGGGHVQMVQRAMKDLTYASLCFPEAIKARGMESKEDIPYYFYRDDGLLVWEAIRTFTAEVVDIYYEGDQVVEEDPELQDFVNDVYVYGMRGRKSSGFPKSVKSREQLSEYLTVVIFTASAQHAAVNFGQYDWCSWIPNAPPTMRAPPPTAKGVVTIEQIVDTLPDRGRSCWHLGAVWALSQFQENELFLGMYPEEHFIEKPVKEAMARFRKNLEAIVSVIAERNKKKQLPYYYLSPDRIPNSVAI
Protocol: In vitro Test System for Determining the Inhibition of 5-lipoxygenase
Human granulocytes are used as a source of the 5-lipoxygenase. LTB4 (leukotriene B4) is formed from endogenous arachidonic acid by means of stimulation with calcium ionophore A 23187. The granulocytes are isolated and the enzyme reaction is carried out according to known processes (see Arch. Pharm. Pharm. Med. Chem. 330, 307-312 (1997)).
The blood, which is protected from clotting with heparin, is centrifuged on a discontinuous Percoll® gradient and the granulocyte layer is pipetted off. After lysis of the erythrocytes, the granulocytes are washed a number of times and then adjusted to a specific cell count. The enzyme reaction is then started with calcium ionophore A 23187 in the presence or absence of the test substance after addition of Ca2+. The synthesis of the leukotrienes is stopped after 1.5 minutes. The samples are centrifuged off and the supernatant is diluted. LTB4 is determined quantitatively by means of ELISA.

[2] = target: T2, COX2 (from sheep placenta) (Ovis aries, UniProt P79208); experiment: In vitro test system for determining the inhibition of cyclooxygenase-2 (COX2 from sheep placenta, PGE2 ELISA); format: biochemical; conditions: read-out: COX-2 IC50
T2 construct: COX2 (from sheep placenta) is preincubated at 4° C. with test substance for 10 min; from tissue; host or cells: sheep placenta
T2 sequence (P79208 17-603): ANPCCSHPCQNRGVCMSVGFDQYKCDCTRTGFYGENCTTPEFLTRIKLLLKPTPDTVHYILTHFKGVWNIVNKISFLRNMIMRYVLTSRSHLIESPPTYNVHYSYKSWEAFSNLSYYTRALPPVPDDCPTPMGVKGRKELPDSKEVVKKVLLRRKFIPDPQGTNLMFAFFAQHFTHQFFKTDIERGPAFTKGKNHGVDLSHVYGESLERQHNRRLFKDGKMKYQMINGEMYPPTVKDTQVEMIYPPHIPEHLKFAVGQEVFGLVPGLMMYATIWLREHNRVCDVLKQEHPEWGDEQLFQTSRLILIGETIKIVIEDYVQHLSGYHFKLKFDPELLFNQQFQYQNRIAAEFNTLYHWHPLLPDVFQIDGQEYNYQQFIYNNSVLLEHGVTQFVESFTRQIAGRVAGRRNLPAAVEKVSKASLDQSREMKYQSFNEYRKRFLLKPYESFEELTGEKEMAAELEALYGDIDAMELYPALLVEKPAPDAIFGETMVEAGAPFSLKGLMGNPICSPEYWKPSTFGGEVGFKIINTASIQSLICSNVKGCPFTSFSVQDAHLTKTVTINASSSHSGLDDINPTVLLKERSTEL
Protocol: In vitro Test System for Determining the Inhibition of Cyclooxygenase-2
COX2 (from sheep placenta) is preincubated at 4° C. with test substance for 10 min, then stimulated with arachidonic acid (5 μM) at 25° C. for 10 min. […] The determination is carried out at 3 dilutions (10^−7, 10^−6, 10^−5 M). The PGE2 concentrations are quantified by means of ELISA (see Mitchell J. A. et al., Proc. Nat. Acad. Sci. 90: 11693-11697 (1993)).

IL-1β [3] = experiment: In vitro test procedure using human whole blood, LPS-stimulated, IL-1β by ELISA; format: cell-based; conditions: Homo sapiens; whole-blood method
Protocol: (§4) In vitro Test Procedure Using Human Whole Blood
(§5) Human potassium-EDTA whole blood (at 400 μl) is preincubated with test substance for 15 min. at 37° C. in a CO2 incubator (5% CO2; 95% moisture-saturated air). The samples are then stimulated for 4 hours with 1 μg/ml of LPS (E. coli 026:B6) at 37° C. in a CO2 incubator (5% CO2; 95% moisture-saturated air). The reaction is ended by placing the samples on ice, addition of DPBS buffer and subsequent centrifugation (1000×g; 15 min). The plasma supernatant is used for the quantification of IL-1β and TNFα by means of ELISA.

TNFα [4] = experiment: In vitro test procedure using human whole blood, LPS-stimulated, TNFα by ELISA; format: cell-based; conditions: Homo sapiens; whole-blood method
Protocol: as §4, §5

IL-1β [5] = experiment: In vitro test procedure using PBMCs, LPS-stimulated, IL-1β by ELISA; format: cell-based; conditions: Homo sapiens, PBMC; for inhibition at 10 µM / inhibition at 1 µM: 4 h, read-out: IL-1β percentage inhibition; for inhibition at 10 µM: at 10 μmol; for inhibition at 1 µM: at 1 μmol
Protocol: as §1, §2, §3

cyclooxygenase-1 = target: T3, cyclooxygenase-1 (Homo sapiens, UniProt P23219); experiment: In vitro test system for determining the inhibition of cyclooxygenase-1 (PGE2 from human platelets, calcium ionophore, ELISA); format: cell-based; conditions: for IC50: human platelets, read-out: COX-1 IC50
T3 construct: endogenous in cells; host or cells: human platelets isolated on a discontinuous Percoll gradient
Protocol: In vitro Test System for Determining the Inhibition of Cyclooxygenase-1
In this test system, the amount of prostaglandin E2 formed from human platelets after addition of calcium ionophore is determined by means of ELISA. In this process, the platelets are obtained after centrifugation on a discontinuous Percoll® gradient. The enzyme reaction and the determination of the metabolites formed is carried out in principle as in the determination of 5-lipoxygenase inhibition. Differences exist with respect to the incubation time. Furthermore, the addition of a thromboxane synthesis inhibitor is necessary (see Arch. Pharm. Pharm. Med. Chem. 330, 307-312 (1997)).

[6] = target: T2, COX2 (from sheep placenta); experiment: In vitro test system for determining the inhibition of cyclooxygenase-2 (COX2 from sheep placenta, PGE2 ELISA); format: biochemical; conditions: for IC50: value in COX-2 column
[7] = 4 h, read-out: TNFα percentage inhibition
[8] = at 10 μmol, cells marked 'PBMC:' / 'whole-blood method:'

T3 sequence (P23219 24-599): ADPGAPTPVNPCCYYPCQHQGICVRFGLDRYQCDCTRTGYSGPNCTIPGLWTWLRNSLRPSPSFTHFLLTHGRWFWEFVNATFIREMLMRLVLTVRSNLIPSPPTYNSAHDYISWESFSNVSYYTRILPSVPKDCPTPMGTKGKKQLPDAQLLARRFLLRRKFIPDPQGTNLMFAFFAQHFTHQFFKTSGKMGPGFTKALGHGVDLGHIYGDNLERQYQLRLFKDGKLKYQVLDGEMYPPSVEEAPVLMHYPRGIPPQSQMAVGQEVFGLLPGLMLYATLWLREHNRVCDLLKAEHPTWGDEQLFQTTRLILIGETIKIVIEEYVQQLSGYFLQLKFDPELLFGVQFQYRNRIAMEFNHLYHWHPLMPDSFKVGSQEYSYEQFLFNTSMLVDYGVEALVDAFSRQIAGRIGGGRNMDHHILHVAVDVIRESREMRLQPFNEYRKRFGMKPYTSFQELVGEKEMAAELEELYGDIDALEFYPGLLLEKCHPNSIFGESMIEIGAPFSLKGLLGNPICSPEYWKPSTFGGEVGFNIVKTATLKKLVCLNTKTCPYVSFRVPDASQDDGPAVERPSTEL

Compound	IC50 (TNFα [1]) [µM]	IC50 (5-lipoxygenase) [µM]	IC50 [2] [µM]	IC50 (IL-1β [3]) [µM]	IC50 (TNFα [4]) [µM]	IC50 (IL-1β [5]) [µM]	IC50 (cyclooxygenase-1) [µM]	COX-2 percentage inhibition ([6]; at 1 μmol, cell marked 'PBMC:') [%]	COX-2 percentage inhibition [6, 8] [%]	IC50 ([6]; cell marked 'PBMC:') [µM]	COX-1 percentage inhibition (cyclooxygenase-1; at 1.0 μmol) [%]	COX-1 percentage inhibition (cyclooxygenase-1; at 10 μmol)	IC50 ([6]; cell marked 'whole-blood method:') [µM]	inhibition at 1 µM (TNFα [1]; [7]) [%]	inhibition at 10 µM (TNFα [1]; [7]) [%]	inhibition at 10 µM (IL-1β [5]) [%]	inhibition at 1 µM (IL-1β [5]) [%]	inhibition at 0.1 µM (TNFα [1]; 4 h, at 0.1 μmol, read-out: TNFα percentage inhibition) [%]
OCc1c(-c2ccncc2)c(-c2ccc(F)cc2)n2c1CCC2 [Example 3, [3-(4-Fluorophenyl)-2-(4-pyridyl)-6,7-dihydro-5H-pyrrolizin-1-yl]methanol]	4	3.7	5.7	22	28	5												
CC1(C)COc2c(-c3ccncc3)c(-c3ccc(F)cc3)cn2C1 [Example 24, 7-(4-Fluorophenyl)-3,3-dimethyl-8-pyridin-4-yl-3,4-dihydro-2H-pyrrolo[2,1-b][1,3]-oxazine]		1.35	4												42	48		
Cc1c(-c2ccncc2)c(-c2ccc(F)cc2)n2c1CCC2 [Example 4, 5-(4-Fluorophenyl)-7-methyl-6-(4-pyridyl)-2,3-dihydro-1H-pyrrolizine]	6	2.4	3.4	59	41	5.7	1.9											
CCOC(=O)c1c(-c2ccc(F)cc2)c(-c2ccncc2)n2c1CCC2 [Example 19A, Ethyl 2-(4-fluorophenyl)-3-(4-pyridyl)-6,7-dihydro-5H-pyrrolizine-1-carboxylate]		2.05	5.5				2.9							0	60	21	0	
Cc1c(-c2ccc(F)cc2)c(-c2ccncc2)n2c1CCC2 [Example 21, 6-(4-Fluorophenyl)-7-methyl-5-(4-pyridyl)-2,3-dihydro-1H-pyrrolizine]	26			37		5.6	0.13		33	0.34			6					
Fc1ccc(-c2cc3n(c2-c2ccncc2)CCC3)cc1 [Example 22, 6-(4-Fluorophenyl)-5-(4-pyridyl)-2,3-dihydro-1H-pyrrolizine]		0.67	1.5				0.23								34	59		
Fc1ccc(-c2c(-c3ccncc3)cc3n2CCCC3)cc1 [Example 18, 3-(4-Fluorophenyl)-2-(4-pyridyl)-5,6,7,8-tetrahydroindolizine]		3.3	1.6	36	37	7.5						10/35%		33	65			16

Continued, in another order:

IC50 (TNFα [1]) [µM]	IC50 (5-lipoxygenase) [µM]	IC50 [2] [µM]	IC50 (IL-1β [3]) [µM]	IC50 (TNFα [4]) [µM]	IC50 (IL-1β [5]) [µM]	IC50 (cyclooxygenase-1) [µM]	COX-2 percentage inhibition ([6]; at 1 μmol, cell marked 'PBMC:') [%]	COX-2 percentage inhibition [6, 8] [%]	IC50 ([6]; cell marked 'PBMC:') [µM]	COX-1 percentage inhibition (cyclooxygenase-1; at 1.0 μmol) [%]	COX-1 percentage inhibition (cyclooxygenase-1; at 10 μmol)	IC50 ([6]; cell marked 'whole-blood method:') [µM]	Compound	inhibition at 1 µM (TNFα [1]; [7]) [%]	inhibition at 10 µM (TNFα [1]; [7]) [%]	inhibition at 10 µM (IL-1β [5]) [%]	inhibition at 1 µM (IL-1β [5]) [%]	inhibition at 0.1 µM (TNFα [1]; 4 h, at 0.1 μmol, read-out: TNFα percentage inhibition) [%]
1.4	0.027	5.8											Fc1ccc(-c2c(-c3ccncc3)cc3n2CCC3)cc1 [Example 5, 5-(4-Fluorophenyl)-6-(4-pyridyl)-2,3-dihydro-1H-pyrrolizine]	44	88			
	0.05					3.5	10	50	4	0	83%		CC1(C)CSc2c(-c3ccncc3)c(-c3ccc(F)cc3)cn2C1 [Example 23, 7-(4-Fluorophenyl)-3,3-dimethyl-8-pyridin-4-yl-3,4-dihydro-2H-pyrrolo[2,1-b][1,3]thiazine]	0	79		19	
10	0.065	6.1	30	30	> 100	3.4							CCOC(=O)c1c(-c2ccncc2)c(-c2ccc(F)cc2)n2c1SCC2 [Example 10A, Ethyl 5-(4-fluorophenyl)-6-(4-pyridyl)-2,3-dihydropyrrolo-[2,1-b]-thiazole-7-carboxylate]					
